The numbers were not newly measured in patent US8323685B2, “Methods of processing compositions containing microparticles” (Baxter International Inc., priority 2008, dated 2012), which cites them from elsewhere.

System in the first data set: not given
The note with it: ambient temperature such as 20-25° C.
On to `CC(C)OC(C)C` [diisopropyl ether], for which the “Solubility (Sol) of water in the liquid” value is 0.2 g/100 g.

With `CCOCC` [ether], the “Solubility (Sol) of water in the liquid” value was 7.5 g/100 g.

The next data set has as its system rats. To be noted: oral, all at once (acute toxicity), minimal amount reported in the literature.
`CCC(C)=O` [2-butanone (MEK), 2-butanone]: the LD50 is recorded as 2.7 g/kg body weight.

As to `CCOCC` [ether], the LD50 is reported as 1.2 g/kg body weight.

Take `CC(C)=O` [Acetone]: the LD50 is 5.8 g/kg body weight.

Turning to `COCCOC` [dimethoxyethane], the LD50 was 10 g/kg body weight.
